Results from patent US20030166605A1, “Method of minimizing damage to heart tissue during cardiac surgery and cardiac transplantation” (priority 1999, published 2003).
Where two headings read alike, the source gives them in different places.

Format: in vivo
Conditions: for Cardiac Index, slope of percentage change from baseline (Slope ± SE) / Pulmonary capillary wedge pressure, slope of percentage change from baseline (Slope ± SE) / Systolic Blood Pressure, slope of percentage change from baseline (Slope ± SE): per hour; for Cardiac Index, slope of percentage change from baseline (Slope ± SE) / Pulmonary capillary wedge pressure, slope of percentage change from baseline (Slope ± SE) / Systolic Blood Pressure, slope of percentage change from baseline (Slope ± SE) / Heart Rate, slope of percentage change from baseline (Slope ± SE): first 24 postoperative hours; for Heart Rate, slope of percentage change from baseline (Slope ± SE): percentage change per hour; for absolute mean heart rate: 24 hours after surgery; for patients who received dopamine / use of any inotropic agent: first 7 days after surgery; for patients who received dopamine: placebo 77%; for use of any inotropic agent: placebo 79%; for insertions of an intraaortic balloon pump for low cardiac output: nine in placebo group; for death rate: placebo 6.0%
Method: A double blind, placebo controlled trial was performed on 253 patients randomized into three groups. The objective of the study was to evaluate the safety, tolerance and efficacy of adenosine in patients undergoing coronary artery bypass surgery. Inadequate myocardial protection in patients undergoing coronary artery bypass surgery contributes to overall hospital mortality and morbidity.
The treatments included the intraoperative administration of cold blood cardioplegia, blood cardioplegia including 500 μM adenosine (“low dose adenosine”), and blood cardioplegia including 200 mM adenosine (“high dose adenosine”). Patients receiving adenosine were also given an infusion of adenosine (200 μg/kg/min) 10 minutes before and 15 minutes after removal of the aortic crossclamp. Invasive and non-invasive measurements of ventricular performance were obtained before, during and after surgery.
Exclusion criteria included known or suspected pregnancy, known hypersensitivity to adenosine, and enrollment in another clinical trial study.
Study Design: 253 patients were split into three groups. Group A patients (n=84) received placebo and were given standard hyperkalemic cold blood cardioplegia. Group B patients (low dose adenosine, n=84) were given hyperkalemic cold blood cardioplegia containing 500 μM adenosine. Group C patients (high dose adenosine) were given hyperkalemic cold blood cardioplegia containing 200 mM adenosine. The patients who received adenosine cardioplegia were also exposed to a 10 minute infusion of adenosine pre-treatment (200 μg/kg/min) immediately before application of the aortic crossclamp and a 15 minute infusion of adenosine immediately after removing the crossclamp.
Before surgery, patients were evaluated for the degree of ischemic disease by history, echocardiography, and cardiac catheterization. In the operating room, hemodynamic measurements were obtained and recorded just before initiating cardiopulmonary bypass and 15, 30, 45 and 60 minutes and 2, 3, 4, 5, and 8 hours after cessation of bypass. In patients requiring intravenous inotropic medications in the postoperative period, hemodynamic monitoring was continued with measurements of specified parameters every 2 hours for 24 hours, and then every 4 hours until the inotropic medications were discontinued or it was ascertained that monitoring was no longer helpful in the management of the patient.
Invasive hemodynamic measurements included systolic blood pressure, heart rate, central venous pressure, pulmonary artery pressure, pulmonary capillary wedge pressure and cardiac output. The cardiac index, stroke volume, systemic vascular resistance, pulmonary vascular resistance, right ventricular stroke work index and left ventricular stroke index were derived. The cardiac output measurements were obtained using a thermodilution catheter and computer. Noninvasive heart function studies included 12-lead electrocardiograms, preoperative stress dobutamine echocardiography, and pre- and post-operative transthoracic and transesophageal echocardiograms. Patients were monitored from the time of enrollment to follow-up 4 to 6 weeks after discharge from the hospital. This included routine blood work and chemistries, arterial blood gases, pH, creatine kinase (CK)-MB concentrations, and pulse oximetry.
The primary endpoints of the study were reduction in total dopamine use during the first 7 days, reduction in all inotropic support required during the first 7 days, reduction in the use of dopamine to less than 5 μg/kg/min.
There were 21 secondary endpoints, including improvement in postoperative hemodynamics, reduction in the use of the intraaortic balloon pump, reduction in the incidence of myocardial infarction, and decrease in the mortality rate.
All patients who received study treatment and underwent coronary bypass surgery were included in the intent-to-treat analysis. […]

[1] = Group B, low dose adenosine (500 μM cardioplegia + infusion)
[2] = Group C, high dose adenosine (200 mM cardioplegia + infusion)

## Nc1ncnc2c1ncn2[C@@H]1O[C@H](CO)[C@@H](O)[C@H]1O [adenosine]
[1]
  Cardiac Index, slope of percentage change from baseline (Slope ± SE): 1.130 ± 0.105
  Pulmonary capillary wedge pressure, slope of percentage change from baseline (Slope ± SE): 0.688 ± 0.249
  Systolic Blood Pressure, slope of percentage change from baseline (Slope ± SE): 0.387 ± 0.060
Group B, low dose adenosine (500 μM in cold blood cardioplegia + 200 μg/kg/min infusion)
  Heart Rate, slope of percentage change from baseline (Slope ± SE): 0.510 ± 0.078
[2]
  Cardiac Index, slope of percentage change from baseline (Slope ± SE): 1.468 ± 0.112
  Pulmonary capillary wedge pressure, slope of percentage change from baseline (Slope ± SE): −0.869 ± 0.288
  Systolic Blood Pressure, slope of percentage change from baseline (Slope ± SE): 0.440 ± 0.063
Group C, high dose adenosine (200 mM in cold blood cardioplegia + 200 μg/kg/min infusion)
  Heart Rate, slope of percentage change from baseline (Slope ± SE): 0.820 ± 0.081
High dose adenosine group versus placebo
  high-dose dopamine support (>5 μg/kg/min): trend toward a decrease
High dose adenosine group
  absolute mean heart rate: 96.8±5.4 beats per minute
  patients who received dopamine: 79%
  use of any inotropic agent: 80%
  insertions of an intraaortic balloon pump for low cardiac output: five
  death rate: 1.2%
High dose adenosine group, placebo 9.5%
  postoperative MI rate: 1.2%
High dose adenosine versus placebo, p=0.006
  percentage of patients experiencing one of the composite adverse events (high dose dopamine, epinephrine use, intraaortic balloon pump, MI, death): lower
human, in vivo
  safety and tolerance: safe and well tolerated
Low dose adenosine group
  absolute mean heart rate: 90.7±3.6 beats per minute
  patients who received dopamine: 71%
  use of any inotropic agent: 73%
  insertions of an intraaortic balloon pump for low cardiac output: two
  death rate: 3.6%
